These results are taken from ChEMBL document CHEMBL1137470, “Pyrrolidinones as potent functional antagonists of the human melanocortin-4 receptor” (Bioorg Med Chem Lett, 2007).

A short description of data set [1]: Ratio of drug level in brain to plasma in mouse at 5 mg/kg, iv after 4 hrs. Type of data set: ADME, organism-based. On the set-up: dose 5 mg/kg, route intravenous. Conditions: read-out: BPR.
A short description of data set [2]: Permeability from basolateral to apical side of the Caco-2 cell membrane. Type of data set: ADME, cell-based. As to conditions: human, read-out: permeability. For orientation: Caco-2 cells form a polarised layer with tight junctions and transporters.
Data set [3] in a line: Drug level in rat brain at 5 mg/kg, iv after 1 hr. Type of data set: ADME, organism-based. As to conditions: read-out: Drug uptake. On the set-up: dose 5 mg/kg, route intravenous.
Data set [4] can be described thus: Plasma clearance in mouse at 5 mg/kg, iv. Type of data set: ADME, organism-based. On the set-up: dose 5 mg/kg, route intravenous.
A short description of data set [5]: Volume of distribution in mouse at 5 mg/kg, iv. Type of data set: ADME, organism-based. Conditions: in vivo. On the set-up: dose 5 mg/kg, route intravenous.
Data set [6] in a line: Half life in mouse at 5 mg/kg, iv. Type of data set: ADME, organism-based. On the set-up: dose 5 mg/kg, route intravenous. As to conditions: in vivo.
The nature of data set [7]: AUC in mouse at 5 mg/kg, iv. Type of data set: ADME, organism-based. As to conditions: plasma. On the set-up: dose 5 mg/kg, route intravenous.
The nature of data set [8]: Drug level in mouse brain at 5 mg/kg, iv after 1 hr. Type of data set: ADME, organism-based. On the set-up: dose 5 mg/kg, route intravenous. Conditions: read-out: Drug uptake.
Data set [9] in a line: Drug level in mouse brain at 5 mg/kg, iv after 4 hrs. On the set-up: dose 5 mg/kg, route intravenous. Type of data set: ADME, organism-based. Conditions: read-out: Drug uptake.
Data set [10] in a line: Ratio of drug level in brain to plasma in rat at 5 mg/kg, iv after 1 hr. Type of data set: ADME, organism-based. On the set-up: dose 5 mg/kg, route intravenous. As to conditions: read-out: BPR.
Data set [11] is described as follows: Cmax in mouse at 10 mg/kg, po after 2 hrs. On the set-up: dose 10 mg/kg, route oral. As to conditions: in vivo. Type of data set: ADME, organism-based.
Data set [12] is described as follows: Tmax in mouse at 10 mg/kg, po. On the set-up: dose 10 mg/kg, route oral. Type of data set: ADME, organism-based. As to conditions: in vivo.
A short description of data set [13]: AUC in mouse at 10 mg/kg, po. Type of data set: ADME, organism-based. The arrangement: dose 10 mg/kg, route oral. Conditions: plasma.
A short description of data set [14]: Oral bioavailability in mouse at 10 mg/kg, po. Type of data set: ADME, organism-based. As to conditions: in vivo.
A short description of data set [15]: Lipophilicity, log D by shake-flask method. Type of data set: physicochemical. Conditions: octanol/water.
Data set [16] in a line: Ratio of drug level in brain to plasma in mouse at 5 mg/kg, iv after 1 hr. The arrangement: dose 5 mg/kg, route intravenous. As to conditions: read-out: BPR. Type of data set: ADME, organism-based.
Data set [17] is described as follows: Apparent permeability across Caco-2 cells. Type of data set: ADME, cell-based. Conditions: human.

Regarding `CC(C)C[C@H](NCCN)c1cc(F)ccc1N1CCN(C(=O)[C@@H](Cc2ccc(Cl)cc2Cl)N2CCCC2=O)CC1`, the Kp at 4 h in data set [1] was found to be 0.23.
On to `CC(C)C[C@H](NCCN)c1cccc(F)c1N1CCN(C(=O)[C@@H](Cc2ccc(Cl)cc2Cl)N2CCCC2=O)CC1`, for which the Papp B→A in data set [2] is 6.7 ×10⁻⁶ cm/s. For the same molecule, the concentration at 1 h in data set [3] was determined as 81 ng/g; in data set [8], 63 ng/g. The molecule also yielded a clearance in [4] of 15 mL/min/kg. For the same molecule, in data set [5], the Vd is 13 L/kg. In [6], the half-life is 600 min. In addition, the AUC in [7] came to 9980 ng·h/mL; in data set [13] it was 1950 ng·h/mL. In addition, in data set [9], the concentration at 4 h amounted to 53 ng/g. Besides, the Kp at 1 h in [10] amounted to 0.47; in data set [16], 0.14. Further, the Cmax in data set [11] stood at 552 ng/mL. Moreover, the time to peak (Tmax) in data set [12] came out at 2 h. Besides, the bioavailability in data set [14] was found to be 19.5%. In data set [15], this molecule yielded a logD of 1.8. For the same molecule, the Papp in data set [17] stood at 2 ×10⁻⁶ cm/s.

As a reminder, the clearance is a measure of how efficiently the substance is removed, as volume per time. As usually defined, the Vd is the apparent volume that relates the amount in the body to the concentration in plasma or blood. High values mean wide distribution into tissue, low ones little distribution into tissue. As usually defined, the half-life is how long it takes for the measured level to halve. As usually defined, the AUC is concentration integrated over time. A higher AUC goes with more exposure. As a reminder, the Cmax is the peak of the concentration-time curve. Usually Tmax stands for the time at which the peak concentration occurs. By bioavailability is commonly meant dose-corrected exposure relative to a reference, in per cent. Read a low bioavailability as poor availability. The logD is the decadic logarithm of the distribution of all forms, ionised or not, between an organic phase and buffer at a given pH. Read a low logD as lower lipophilicity. What is called Papp is the rate of passage across a membrane or cell layer, normalised by area and donor concentration.
